# Experimental data from paper PMC7496097, “Establishment of a system for finding inhibitors of ε RNA binding with the HBV polymerase” (Genes to Cells, 2020).
# T1: Strep‐TP‐spacer‐RT‐His8 (HBVpol 1‐690aa; TP‐RT) (Hepatitis B virus ar/Japan/S-207/1988, UniProt Q9YZR5)
# T1 construct: gene P; residues 1-690 of HBV polymerase (TP, spacer, RT); no polymerase activity detected
# T1 sequence (Q9YZR5 1-690): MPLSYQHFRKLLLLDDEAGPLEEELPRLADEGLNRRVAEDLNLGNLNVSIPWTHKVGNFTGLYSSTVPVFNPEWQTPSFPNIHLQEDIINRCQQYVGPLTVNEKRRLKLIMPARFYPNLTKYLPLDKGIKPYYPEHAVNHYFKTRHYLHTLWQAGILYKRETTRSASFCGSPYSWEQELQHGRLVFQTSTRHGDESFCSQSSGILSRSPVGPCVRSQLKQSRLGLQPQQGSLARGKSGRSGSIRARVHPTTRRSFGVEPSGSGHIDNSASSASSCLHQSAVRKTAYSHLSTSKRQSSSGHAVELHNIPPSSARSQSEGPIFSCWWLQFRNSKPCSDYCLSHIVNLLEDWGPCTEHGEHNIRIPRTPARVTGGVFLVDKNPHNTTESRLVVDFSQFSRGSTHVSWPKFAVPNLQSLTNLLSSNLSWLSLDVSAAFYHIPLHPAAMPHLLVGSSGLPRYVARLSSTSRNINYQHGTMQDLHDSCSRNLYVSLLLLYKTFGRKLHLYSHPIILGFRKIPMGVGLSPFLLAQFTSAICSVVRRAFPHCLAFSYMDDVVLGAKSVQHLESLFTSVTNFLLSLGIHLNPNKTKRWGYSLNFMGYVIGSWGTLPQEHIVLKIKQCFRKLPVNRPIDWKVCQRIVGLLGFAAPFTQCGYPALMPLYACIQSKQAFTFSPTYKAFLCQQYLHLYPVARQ
# T2: Strep-TP-spacer-RT-His8 (HBV polymerase TP-spacer-RT), refolded (Hepatitis B virus, UniProt Q9YZR5 1-690)
# T2 sequence: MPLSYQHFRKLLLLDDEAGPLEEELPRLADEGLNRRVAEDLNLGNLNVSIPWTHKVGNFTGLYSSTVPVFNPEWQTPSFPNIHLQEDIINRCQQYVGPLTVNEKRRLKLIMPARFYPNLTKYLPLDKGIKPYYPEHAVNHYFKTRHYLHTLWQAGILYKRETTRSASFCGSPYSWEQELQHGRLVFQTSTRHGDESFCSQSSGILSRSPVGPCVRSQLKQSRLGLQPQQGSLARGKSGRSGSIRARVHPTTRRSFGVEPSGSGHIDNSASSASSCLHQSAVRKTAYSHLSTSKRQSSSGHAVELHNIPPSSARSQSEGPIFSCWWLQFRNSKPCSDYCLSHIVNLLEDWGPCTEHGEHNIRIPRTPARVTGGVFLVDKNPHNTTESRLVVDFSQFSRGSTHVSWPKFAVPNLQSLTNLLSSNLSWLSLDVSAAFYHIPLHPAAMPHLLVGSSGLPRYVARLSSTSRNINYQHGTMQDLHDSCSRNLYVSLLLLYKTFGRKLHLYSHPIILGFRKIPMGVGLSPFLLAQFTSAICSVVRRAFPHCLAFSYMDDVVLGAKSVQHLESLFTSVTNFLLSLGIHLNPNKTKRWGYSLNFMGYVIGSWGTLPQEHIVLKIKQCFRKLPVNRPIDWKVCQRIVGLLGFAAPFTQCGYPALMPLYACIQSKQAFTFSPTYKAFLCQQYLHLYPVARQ
# T3: His6-SUMO-TP (Hepatitis B virus, UniProt Q9YZR5 1-177)
# T3 sequence: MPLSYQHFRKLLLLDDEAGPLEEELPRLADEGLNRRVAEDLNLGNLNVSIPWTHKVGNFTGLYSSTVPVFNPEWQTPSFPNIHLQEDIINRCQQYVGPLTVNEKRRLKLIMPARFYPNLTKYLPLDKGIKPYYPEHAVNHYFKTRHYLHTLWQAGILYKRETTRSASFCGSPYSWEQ
# Assays:
# [1] = target: T1, Strep‐TP‐spacer‐RT‐His8 (HBVpol 1‐690aa; TP‐RT); experiment: plate assay, inhibition of DIG-labelled epsilon RNA binding to immobilised protein, luminescence; conditions: 5 pmol DIG-epsilon RNA WT, pH 7.5, room temperature, 3 hr; binding considered nonspecific by the authors; unreliable
# [2] = target: T1, Strep‐TP‐spacer‐RT‐His8 (HBVpol 1‐690aa; TP‐RT); experiment: surface plasmon resonance; conditions: binding considered nonspecific by the authors (also binds GFP control); unreliable
# [3] = target: T4, Strep‐TP‐spacer‐RT‐His8 (HBVpol 1‐690aa; TP‐RT) (Hepatitis B virus ar/Japan/S-207/1988, UniProt Q9YZR5); experiment: surface plasmon resonance; assay type: binding
# T4 construct: gene P; residues 1-690 of HBV polymerase (TP, spacer, RT); no polymerase activity detected
# [4] = target: T4, Strep‐TP‐spacer‐RT‐His8 (HBVpol 1‐690aa; TP‐RT); experiment: plate assay, inhibition of DIG-labelled epsilon RNA binding to immobilised protein, luminescence; conditions: 5 pmol DIG-epsilon RNA WT, pH 7.5, room temperature, 3 hr
# [5] = target: T2, Strep-TP-spacer-RT-His8 (HBV polymerase …); experiment: streptavidin plate binding assay (anti-DIG-HRP luminescence); refolded protein; 5 pmol RNA; 50 mM Tris-HCl pH 7.5, 150 mM NaCl, 1 mM EDTA, 0.05% NP-40, 1 mg/ml BSA, 1 ug/ml poly(I/C), 0.1% protease inhibitor cocktail, 2 mM DTT; room temperature, 3 h (competition 30 min); conditions: protein: recombinant, tags: N-terminal Strep, self-annealed
# [6] = target: T3, His6-SUMO-TP; experiment: nickel plate binding assay (anti-DIG-HRP luminescence); 5 pmol RNA; no specific binding; 50 mM Tris-HCl pH 7.5, 150 mM NaCl, 1 mM EDTA, 0.05% NP-40, 1 mg/ml BSA, 1 ug/ml poly(I/C), 0.1% protease inhibitor cocktail, 2 mM DTT; room temperature, 3 h (competition 30 min); conditions: protein: recombinant; tags: N-terminal His6-SUMO; hairpin with central bulge and apical loop, self-annealed
molecule,measurement,setting,value
NC(Cc1cc(O)c(O)cc1O)C(=O)O (racemic) [6‐hydroxy‐DL‐DOPA],IC50,[1],~ 6.6 µM
same,KD,[2],11 nM
CCCCCCCC/C=C\CCCCCCCC(=O)NCCc1ccc(O)c(O)c1 [N‐oleoyldopamine],Kd,[3],72 nM
same,IC50,[4],~410 nM
epsilon WT RNA (structured_RNA) RNA: UCUCAUGUUCAUGUCCUACUGUUCAAGCCUCCAAGCUGUGCCUUGGGUGGCUUUGGGGCAUGGACAUUGA,binding result,[5]; hairpin with central bulge and apical loop,binds
same,binding result,[6],no binding
epsilon dBdL RNA (central bulge and apical loop deleted) (structured_RNA) RNA: UCUCAUGUUCAUGUCCUAGCCUCCAAUUGGGUGGCUUUGGGGCAUGGACAUUGAC,binding result,[5]; hairpin,no binding
